# Experimental data as given in patent US20230138395A1, “PHARMACEUTICAL COMPOSITIONS OF A THERAPEUTIC POLYENE MACROLIDE AND METHODS OF THEIR USE” (priority 2020, published 2023).
# Columns and labels:
# [1] = Solubility of Compound 1A in lipids, oils and acrylate monomers; assay type: physicochemical
# From the text: In General, the Constituents of a PACA Particle Contains: • Aqueous phase: Brij L35, Kolliphor HS15 and HCl to adjust pH • Oil phase: acrylate monomer (ethyl hexylcyanoacrylate, ethyl butylcyanoacrylate, 1-heptyl cyanoacrylate, and 2-phenylethyl cyanoacrylate/butyl cyanoacrylate), Miglyol, vanillin, Compound 1A.
# Lipid-based particles were investigated as a vehicle for Compound 1A.
# Paecilomyces strains = assay: MIC testing (CLSI M38-A2); assay type: cell-based, Paecilomyces spp.; conditions: Paecilomyces strains (5); in µg/mL
Compound,solubility ([1]; in 1-heptyl cyanoacrylate and 2-phenylethyl cyanoacrylate/butyl cyanoacrylate),solubility ([1]; in the tested oils and lipids listed),solubility ([1]; in trans-cinnamaldehyde),MIC Range (Paecilomyces strains)
C[C@@H]1[C@H](O)[C@@H](C)/C=C/C=C/C=C/C=C/C=C/C=C/C=C/[C@H](O[C@@H]2O[C@H](C)[C@@H](O)[C@H](N)[C@@H]2O)C[C@@H]2O[C@](O)(C[C@@H](O)[C@H](O)CC[C@@H](O)C[C@@H](O)C[C@@H](O)CC(=O)O[C@H]1C)C[C@H](O)[C@H]2C [Compound 1A],unable to dissolve,None of the tested oils or lipids dissolved Compound 1A well,somewhat soluble,–
"C[C@@H](c1ncncc1F)[C@](O)(Cn1cncn1)c1ccc(F)cc1F [Voriconazole, voriconazole]",–,–,–,0.125-2
